Where two headings read alike, the source gives them in different places.
Test system: L. donovani IRFP axenic amastigotes
Test: Primary single-concentration screening on axenic amastigotes, growth inhibition at 72 h
Assay type: cell-based, Leishmania donovani
Conditions: axenic amastigotes; for Growth Inhibition (%) at 72h, 1 µM_Exp1 / Growth Inhibition (%) at 72h, 1 µM_Exp2 / inhibition at 1 µM: 1 µM; for Growth Inhibition (%) at 72h, 10 µM_Exp1 / Growth Inhibition (%) at 72h, 10 µM_Exp2 / inhibition at 10 µM: 10 µM; for inhibition at 1 µM / inhibition at 10 µM: Leishmania donovani
[1] = experiment 1, 72 h, read-out: Growth Inhibition (%) at 72h, 1 µM_Exp1
[2] = experiment 2, 72 h, read-out: Growth Inhibition (%) at 72h, 1 µM_Exp2
[3] = experiment 1, 72 h, read-out: Growth Inhibition (%) at 72h, 10 µM_Exp1
[4] = experiment 2, 72 h, read-out: Growth Inhibition (%) at 72h, 10 µM_Exp2

SMILES	Growth Inhibition (%) at 72h, 1 µM_Exp1 (experiment 1, 72 h)	Growth Inhibition (%) at 72h, 1 µM_Exp2 (experiment 2, 72 h)	Growth Inhibition (%) at 72h, 10 µM_Exp1 (experiment 1, 72 h)	Growth Inhibition (%) at 72h, 10 µM_Exp2 (experiment 2, 72 h)	inhibition at 1 µM [1]	inhibition at 1 µM [2]	inhibition at 10 µM [3]	inhibition at 10 µM [4]
CN1c2ccccc2C(=O)N2CCc3c([nH]c4ccccc34)[C@@H]21 (racemic) [(±)-Evodiamine]	64.72%	40.81%	100.52%	97.39%	–	–	–	–
c1ccc2c(Cc3[nH]c4ccccc4c3Cc3c[nH]c4ccccc34)c[nH]c2c1 [2,3-Bis(3-indolylmethyl) indole]	–	–	–	–	-5.15%	13.6%	101%	100%
c1ccc2c(Cc3c[nH]c4ccccc34)c[nH]c2c1 [3,3'-Diindolylmethane]	–	–	–	–	-59.5%	-44.6%	100%	95.7%
O=C(O)Cc1c[nH]c2ccccc12 [3-Indoleacetic acid]	–	–	–	–	-25.4%	-9.83%	102%	101%
CCc1c2c(nc3ccccc13)-c1cc3c(c(=O)n1C2)COC(=O)[C@]3(O)CC [7-Ethylcamptothecin]	70.44%	77.88%	96.57%	91.90%	–	–	–	–
CC[C@@]1(O)C(=O)OCc2c1cc1n(c2=O)Cc2cc3c(N)cccc3nc2-1 [9-Aminocamptothecin]	–	–	–	–	-3.99%	62%	74.7%	89.1%
CC[C@@]1(O)C(=O)OCc2c1cc1n(c2=O)Cc2cc3c(OC)cccc3nc2-1 [9-Methoxycamptothecin]	64.49%	73.97%	96.02%	94.80%	–	–	–	–
CC[C@@]1(O)C(=O)OCc2c1cc1n(c2=O)Cc2cc3cc(OC)ccc3nc2-1 [10-Methoxycamptothecin]	73.40%	85.61%	97.42%	93.76%	–	–	–	–
CCc1ccc(O)c2cc3c(nc12)-c1cc2c(c(=O)n1C3)COC(=O)[C@]2(O)CC [12-Ethyl-9-hydroxycamptothecin]	22.17%	56.54%	70.30%	62.49%	–	–	–	–
CC(C)=CC[C@H](O)C1=CC(=O)c2c(O)ccc(O)c2C1=O [(-)-Alkannin]	100.44%	100.08%	99.90%	99.93%	–	–	–	–
Br.CN1[C@H]2C[C@H](OC(=O)[C@H](CO)c3ccccc3)C[C@@H]1[C@@H](O)C2 [Anisodamine (hydrobromide)]	-15.73%	4.55%	80.63%	11.58%	–	–	–	–
COc1ccc2cc3[n+](cc2c1OC)CCc1cc2c(cc1-3)OCO2.O.[Cl-] [Berberine (chloride hydrate)]	29.91%	24.54%	98.55%	99.87%	–	–	–	–
COc1ccc2cc3[n+](cc2c1OC)CCc1cc2c(cc1-3)OCO2.[Cl-] [Berberine (chloride)]	16.68%	6.56%	99.29%	97.39%	–	–	–	–
COc1ccc2cc3[n+](cc2c1OC)CCc1cc2c(cc1-3)OCO2.O=S(=O)([O-])O [Berberine (sulfate)]	19.57%	-24.39%	70.74%	94.59%	–	–	–	–
CC[C@@]1(O)C(=O)OCc2c1cc1n(c2=O)Cc2cc3ccccc3nc2-1 [Camptothecin]	–	–	–	–	66.4%	89.3%	91%	95.9%
CC[C@H]1CN2CCc3cc(OC)c(OC)cc3[C@@H]2C[C@@H]1C[C@H]1NCCc2cc(O)c(OC)cc21.Cl.Cl [Cephaeline (dihydrochloride)]	-15.97%	-74.54%	96.96%	92.99%	–	–	–	–
O=S(=O)([O-])O.c1c2c(cc3c1OCO3)-c1cc3ccc4c(c3c[n+]1CC2)OCO4 [Coptisine (Sulfate)]	-9.12%	-56.10%	71.50%	83.90%	–	–	–	–
[Cl-].c1c2c(cc3c1OCO3)-c1cc3ccc4c(c3c[n+]1CC2)OCO4 [Coptisine (chloride)]	29.53%	16.08%	84.96%	96.73%	–	–	–	–

SMILES	Growth Inhibition (%) at 72h, 1 µM_Exp1 (experiment 1, 72 h)	Growth Inhibition (%) at 72h, 1 µM_Exp2 (experiment 2, 72 h)	Growth Inhibition (%) at 72h, 10 µM_Exp1 (experiment 1, 72 h)	Growth Inhibition (%) at 72h, 10 µM_Exp2 (experiment 2, 72 h)	inhibition at 1 µM [1]	inhibition at 1 µM [2]	inhibition at 10 µM [3]	inhibition at 10 µM [4]
COc1cc2c(cc1OC)[C@H]1[C@@H](C)c3ccc(OC)c(OC)c3CN1CC2 [Corydaline]	-15.75%	2.30%	79.13%	87.39%	–	–	–	–
COc1cc2c(cc1O)C1Cc3ccc(OC)c(O)c3C[N+]1(C)CC2.[Cl-] (stereo not drawn) [Cyclanoline (chloride)]	-48.98%	13.86%	77.56%	17.25%	–	–	–	–
CC(=O)C1=C(O)[C@@H]2[C@H]3c4c[nH]c5cccc(c45)C[C@H]3C(C)(C)N2C1=O [Cyclopiazonic acid]	–	–	–	–	20.8%	19.9%	100%	100%
COc1cc2c(cc1OC)-c1c(C)c3ccc(OC)c(OC)c3c[n+]1CC2.[Cl-] [Dehydrocorydaline (chloride)]	13.00%	31.86%	95.47%	88.17%	–	–	–	–
COc1cc2c(cc1OC)-c1c(C)c3ccc(OC)c(OC)c3c[n+]1CC2.[OH-] [Dehydrocorydaline (hydroxyl)]	10.19%	-0.13%	92.43%	77.86%	–	–	–	–
COc1cc2c(cc1OC)-c1c(C)c3ccc(OC)c(OC)c3c[n+]1CC2.O=[N+]([O-])[O-] [Dehydrocorydaline (nitrate)]	27.42%	-14.19%	82.98%	66.56%	–	–	–	–
COc1ccc2cc3[n+](cc2c1OC)CCc1cc(O)c(O)cc1-3.[Cl-] [Demethyleneberberine (chloride)]	-4.24%	8.25%	43.2%	71.18%	–	–	–	–
COc1cc(CNC(=O)CCCCCCC(C)C)ccc1O [Dihydrocapsaicin]	–	–	–	–	-4.08%	35.3%	92%	71.1%
CCCCCCCCCCCCCc1cc(=O)c2ccccc2n1C [Dihydroevocarpine]	-21.58%	19.18%	97.61%	83.00%	–	–	–	–
Cc1c2ccncc2c(C)c2c1[nH]c1ccccc12.Cl [Ellipticine (hydrochloride)]	36.30%	-10.32%	98.68%	97.67%	–	–	–	–
Cl.Cl.O=C(C[C@H]1NCCC[C@@H]1O)Cn1cnc2ccccc2c1=O [Febrifugine (dihydrochloride)]	74.39%	25.76%	97.63%	97.12%	–	–	–	–
O=C(C[C@H]1NCCC[C@@H]1O)Cn1cnc2ccccc2c1=O [Febrifugine]	–	–	–	–	15.4%	-25.3%	99.8%	98.2%
Br.O=C(CC1NCCCC1O)Cn1cnc2cc(Br)c(Cl)cc2c1=O (stereo not drawn) [Halofuginone (hydrobromide)]	99.34%	83.65%	100.16%	98.51%	–	–	–	–
O=C(CC1NCCCC1O)Cn1cnc2cc(Br)c(Cl)cc2c1=O (stereo not drawn) [Halofuginone]	–	–	–	–	93.7%	90.9%	97.7%	98.2%
COC(=O)C[C@](O)(CCC(C)(C)O)C(=O)O[C@@H]1C(OC)=C[C@]23CCCN2CCc2cc4c(cc2[C@H]13)OCO4 [Harringtonine]	–	–	–	–	-25.3%	3.29%	92.5%	92.2%
COC(=O)C[C@](O)(CCCC(C)(C)O)C(=O)O[C@@H]1C(OC)=C[C@]23CCCN2CCc2cc4c(cc2[C@H]13)OCO4 [Homoharringtonine]	–	–	–	–	4.68%	-119%	89.9%	91.5%
O=C(O)CNCC(=O)O [Iminodiacetic acid]	–	–	–	–	-16.6%	-73%	-16.9%	79.9%
O=C(O)CCCc1c[nH]c2ccccc12 [Indole-3-butyric acid]	–	–	–	–	-6.27%	14.8%	70.2%	84%

Reference: paper PMC12608155, “Discovery of Potential Antileishmanial Compounds Through Phenotypic Screening of an Alkaloid Library” (Molecules, 2025)
